Here are results for 4 compounds from patent US20240189319A1, “RIFAMYCIN ANALOGS IN COMBINATION WITH VANCOMYCIN AND USES THEREOF” (Regeneron Pharmaceuticals, Inc, priority 2021, published 2024).

The subject of assay [1] is S. aureus MRSA strain NRS384. The assay can be described thus: S. aureus IV advanced disseminated infection mouse model, strain NRS384 (kidney burden). The assay is classed as in vivo, Staphylococcus aureus. Particulars: for kidney burden reduction in combination with vancomycin, compared with rifampicin plus vancomycin (in words): Example 3B versus Example 3A; for kidney burden, combination with vancomycin versus vancomycin alone (in words): 0.01-0.25 mg/kg + vancomycin. As for the experimental part: (§1) To test the efficacy of rifamycin analogs (I) and (II) according to the disclosure in combination therapy with vancomycin in vivo, a 4-day intravenous disseminated infection model was utilized. S. aureus MSRA strain NRS384 or N315, where indicated, was grown overnight in tryptic soy broth (TSB) and sub-cultured to mid-logarithmic phase. Bacteria were then washed twice with PBS and resuspended in PBS at a concentration of 1.5×10^8 cfu/mL NRS384 or 6.0×10^8 N315. Six-week-old Balb/c mice were then infected intravenously through the tail vein with 100 uL of the bacterial suspension, for a final infectious dose of 1.5×10^7 cfu/mouse NRS384 or 6.0×10^7 N315. From one to three days post infection, indicated mice were treated with 110 mg/kg vancomycin subcutaneously twice daily where indicated. Rifamycin analogs (I) or (II) were administered subcutaneously at the indicated dose two days after infection. Mice were monitored for weight loss and body conditioning score throughout the infection. At four days post infection, mice were euthanized, and the S. aureus kidney burden was quantified by tissue homogenization followed by enumeration of colony forming units through serial dilution in PBS and plating onto trypticase soy agar plates. Data points represent the kidney burden from individual mice tested.
In this experiment, mice infected with S. aureus MSRA strain NRS384 were treated with vancomycin alone (control) or vancomycin in combination with 0.002 mg/kg to 25 mg/kg rifampicin, a commercially-available rifamycin analog control.
In this experiment, mice infected with S. aureus MSRA strain NRS384 were treated with vancomycin alone (control) or vancomycin in combination with 0.01-0.25 mg/kg rifamycin analog (I) or 0.01-0.25 mg/kg rifamycin analog (II).
In this experiment, mice infected with S. aureus MSRA strain NRS384 were treated with 25 mg/kg rifampicin (control) or 0.002-0.25 mg/kg rifamycin analog (II) alone or in combination with vancomycin, with vancomycin alone as a control.

The subject of assay [2] is S. aureus MRSA strain N315. The assay can be described thus: S. aureus IV advanced disseminated infection mouse model, strain N315 (kidney burden). The assay is classed as in vivo, Staphylococcus aureus. Particulars: for Median cfu/kidney pair / kidney burden relative to limit of detection (in words) / bacterial load relative to limit of detection (in words): Example 3D; for Median cfu/kidney pair: day 4, LOD 250. As for the experimental part:
as §1
In this experiment, mice infected with S. aureus MSRA strain N315 were treated with 25 mg/kg rifampicin (control), or 0.01-0.75 mg/kg rifamycin analog (I), or 0.002-0.25 mg/kg rifamycin analog (II) in combination with vancomycin, with vancomycin alone as a control.

Where [3] appears, read: Example 3B, dose 0.01 mg/kg sc day 2 + vancomycin 110 mg/kg twice daily, day 4, LOD 250.
[4] abbreviates: Example 3B, dose 0.05 mg/kg sc day 2 + vancomycin 110 mg/kg twice daily, day 4, LOD 250.
Setting [5] is: Example 3B, dose 0.25 mg/kg sc day 2 + vancomycin 110 mg/kg twice daily, day 4, LOD 250.
The mark [6] stands for this setting: dose 0.01 mg/kg + vancomycin 110 mg/kg twice daily.
[7] abbreviates: dose 0.05 mg/kg + vancomycin 110 mg/kg twice daily.
Where [8] appears, read: dose 0.25 mg/kg + vancomycin 110 mg/kg twice daily.

Regarding `CO[C@H]1/C=C/O[C@@]2(C)Oc3c(C)c(O)c4c(O)c(c(/C=N/N5CCN(C)CC5)c(O)c4c3C2=O)NC(=O)/C(C)=C\C=C\[C@H](C)[C@H](O)[C@@H](C)[C@@H](O)[C@@H](C)[C@H](OC(C)=O)[C@@H]1C` [Rifampicin, reference compound], the Median cfu/kidney pair in assay [1] (Example 3A, dose 0.002 mg/kg + vancomycin 110 mg/kg twice daily, day 4, LOD 250) turned out to be 3.38E+06 cfu/kidney pair; in assay [1] (Example 3A, dose 0.01 mg/kg + vancomycin 110 mg/kg twice daily, day 4, LOD 250) it was 3.00E+06 cfu/kidney pair; in assay [1] (Example 3A, dose 0.05 mg/kg + vancomycin 110 mg/kg twice daily, day 4, LOD 250) it was 2.75E+06 cfu/kidney pair; in assay [1] (Example 3A, dose 0.25 mg/kg + vancomycin 110 mg/kg twice daily, day 4, LOD 250) it was 2.50E+02 cfu/kidney pair; in assay [1] (Example 3A, dose 25 mg/kg + vancomycin 110 mg/kg twice daily, day 4, LOD 250), 2.50E+02 cfu/kidney pair; in assay [1] (Example 3C, dose 25 mg/kg + vancomycin 110 mg/kg twice daily, day 4, LOD 250), 2.50E+02 cfu/kidney pair. Besides, the Median cfu/kidney pair in assay [1] (Example 3C, dose 25 mg/kg, without vancomycin, day 4, LOD 250) is given as 7.07E+08 cfu/kidney pair; in assay [2] (dose 25 mg/kg + vancomycin 110 mg/kg twice daily), 2.50E+02 cfu/kidney pair.
Regarding Vancomycin [reference compound], the Median cfu/kidney pair was found to be 1.30E+06 cfu/kidney pair in assay [1] (Example 3A, Balb/c mice, vancomycin alone 110 mg/kg sc twice daily days 1-3, day 4 post infection, limit of detection 250); 3.50E+06 cfu/kidney pair in assay [1] (Example 3B, vancomycin alone 110 mg/kg sc twice daily, day 4, LOD 250); 1.13E+06 cfu/kidney pair in assay [1] (Example 3C, vancomycin alone 110 mg/kg sc twice daily, day 4, LOD 250); 3.88E+04 cfu/kidney pair in assay [2] (vancomycin alone 110 mg/kg sc twice daily). In assay [1] (Example 3C), the “efficacy when rifamycin analog (II) and vancomycin are used in combination (in words)” value was “enhanced”. For the same compound, the “reduction in S. aureus kidney burden” value in assay [1] (vancomycin treatment alone (Examples 3A, 3B, 3C)) is 2-3 log; in assay [2] (vancomycin treatment alone (Example 3D)), about 4 log.
On to `CO[C@H]1/C=C/O[C@@]2(C)Oc3c(C)c(O)c4c(=O)c(c5oc6cc(OCCN(C)C)ccc6nc-5c4c3C2=O)NC(=O)/C(C)=C\C=C\[C@H](C)[C@H](O)[C@@H](C)[C@@H](O)[C@@H](C)[C@H](OC(C)=O)[C@@H]1C` [Rifamycin analog (II)], for which the “reduction in S. aureus kidney burden” value in assay [1] (0.25 mg/kg as a monotherapy (Example 3C)) is given as about 3 logs. Besides, the “kidney burden reduction in combination with vancomycin, compared with rifampicin plus vancomycin (in words)” value in assay [1] is given as “effective at reducing S. aureus kidney burden at lower doses than rifampicin”. In assay [1] (Example 3B), the “kidney burden, combination with vancomycin versus vancomycin alone (in words)” value was “further reduced kidney burden”. The Median cfu/kidney pair in assay [1] (setting [3]) stood at 2.50E+02 cfu/kidney pair; in assay [1] (setting [4]), 2.50E+02 cfu/kidney pair; in assay [1] (setting [5]) it was 3.38E+05 cfu/kidney pair; in assay [1] (Example 3C, dose 0.002 mg/kg + vancomycin 110 mg/kg twice daily, day 4, LOD 250), 2.50E+02 cfu/kidney pair; in assay [1] (Example 3C, dose 0.002 mg/kg, without vancomycin, day 4, LOD 250), 2.75E+07 cfu/kidney pair; in assay [1] (Example 3C, dose 0.01 mg/kg + vancomycin 110 mg/kg twice daily, day 4, LOD 250), 2.50E+02 cfu/kidney pair. Also, the Median cfu/kidney pair in assay [1] (Example 3C, dose 0.01 mg/kg, without vancomycin, day 4, LOD 250) is on record as 5.13E+06 cfu/kidney pair; in assay [1] (Example 3C, dose 0.05 mg/kg + vancomycin 110 mg/kg twice daily, day 4, LOD 250) it was 2.50E+02 cfu/kidney pair; in assay [1] (Example 3C, dose 0.05 mg/kg, without vancomycin, day 4, LOD 250) it was 1.52E+08 cfu/kidney pair; in assay [1] (Example 3C, dose 0.25 mg/kg + vancomycin 110 mg/kg twice daily, day 4, LOD 250), 3.75E+02 cfu/kidney pair; in assay [1] (Example 3C, dose 0.25 mg/kg, without vancomycin (monotherapy), day 4, LOD 250) it was 2.13E+04 cfu/kidney pair; in assay [2] (dose 0.002 mg/kg + vancomycin 110 mg/kg twice daily), 2.50E+02 cfu/kidney pair. Besides, the values for the Median cfu/kidney pair in assay [2] (setting [6]), in assay [2] (setting [7]) and in assay [2] (setting [8]) were 2.50E+02 cfu/kidney pair, 6.25E+02 cfu/kidney pair and 2.50E+02 cfu/kidney pair, respectively. For the same compound, the “S. aureus kidney burden relative to limit of detection (in words)” value in assay [1] (Example 3B, lowest tested dose 0.01 mg/kg + vancomycin) is recorded as “below the limit of detection”. Moreover, the “combination with vancomycin versus monotherapies in reducing bacterial burden (in words)” value in assay [1] (Example 3C) is given as “more effective than either monotherapy”. Further, the “efficacy when rifamycin analog (II) and vancomycin are used in combination (in words)” value in assay [1] (Example 3C) is recorded as “enhanced”. In addition, the “bacterial load relative to limit of detection (in words)” value in assay [1] (Example 3C, low doses including 0.05 and 0.002 mg/kg, in combination with vancomycin) was “below the limit of detection”; in assay [2] (dose of 0.002 mg/kg in combination with vancomycin), “below the limit of detection”. For the same compound, in assay [2] (0.002-0.25 mg/kg + vancomycin), the “kidney burden relative to limit of detection (in words)” value is listed as “at or near the limit of detection”.
Consider `CO[C@H]1/C=C/O[C@@]2(C)Oc3c(C)c(O)c4c(=O)c(c5oc6cc(OCCN(C)C)cc(O)c6nc-5c4c3C2=O)NC(=O)/C(C)=C\C=C\[C@H](C)[C@H](O)[C@@H](C)[C@@H](O)[C@@H](C)[C@H](OC(C)=O)[C@@H]1C` [Rifamycin analog (I)], for which the “kidney burden reduction in combination with vancomycin, compared with rifampicin plus vancomycin (in words)” value in assay [1] is given as “effective at reducing S. aureus kidney burden at lower doses than rifampicin”. Further, the “kidney burden, combination with vancomycin versus vancomycin alone (in words)” value in assay [1] (Example 3B) is “further reduced kidney burden”. In addition, the Median cfu/kidney pair in assay [1] (setting [3]) turned out to be 5.88E+04 cfu/kidney pair; in assay [1] (setting [4]) it was 5.75E+03 cfu/kidney pair; in assay [1] (setting [5]), 2.50E+02 cfu/kidney pair; in assay [2] (setting [6]) it was 2.50E+02 cfu/kidney pair; in assay [2] (setting [7]) it was 2.50E+02 cfu/kidney pair; in assay [2] (setting [8]) it was 2.50E+02 cfu/kidney pair. In assay [2] (dose 0.75 mg/kg + vancomycin 110 mg/kg twice daily), the Median cfu/kidney pair is 2.50E+02 cfu/kidney pair. Further, in assay [2] (0.01-0.75 mg/kg + vancomycin), the “kidney burden relative to limit of detection (in words)” value is “at or near the limit of detection”. Moreover, the “bacterial load relative to limit of detection (in words)” value in assay [2] (dose of 0.01 mg/kg in combination with vancomycin) is recorded as “below the limit of detection”.
